The text below walks through data of patent US20080260817A1, “Compositions for the Treatment of Inflammation and Pain Using a Combination of a Cox-2 Selective Inhibitor and a Ltb4 Receptor Antagonist” (priority 2004, published 2008).

What all share (assay type): in vivo
Assay [1] deals with zymosan-stimulated air pouch, cells infiltrated per pouch. The experiment in a line: Murine air pouch model, 2 hour zymosan. The settings on record: Table 7 (FIG. 1); female Balb/c mice; PO BID from day 5; pouch lavage 2 hours after 1% zymosan on day 7; 30 mpk COX-2 Inhibitor, 300mpk LTB4 RA, alone or combined. On the procedure: In the present invention, the anti-inflammatory effects of COX-2 inhibitors and LTB4 inhibitors, both alone and together, can be evaluated using the mouse air pouch model (see Example 1 and FIG. 1). Following the addition of a COX-2 inhibitor, or an LTB4 inhibitor, or both, to a zymosan-stimulated air pouch, results may be reported as the number of cells that have infiltrated per pouch as an indicator of inflammation.
Female Balb/c mice age 8-12 weeks are injected with approximately 5 milliliters of air subcutaneous using a 10 milliliter syringe with a 27-gauge needle and a 0.2 micron acrodisc filter. The animals are anesthetized with CO2/O2 mix, and then the air injection is made subcutaneously in the intrascapular region of the mouse. Animals' pouches are reinflated every 2-3 days with approximately 2-3 milliliters of air, same as above. Dosing of each compound, including Vehicle (0.5% Methylcellulose+0.025% Tween 80) or a COX-2 inhibitor (compound C-1, 15 mpk, BID), or an LTB4 receptor antagonist (compound L-2, 150 mpk, BID), or the COX-2 inhibitor combined with the LTB4 receptor antagonist (compound C-1, 30 mpk+compound L-2 150 mpk BID), starting on day 5 at 6 am. Compounds are given orally (PO) and dosed BID in a volume of 0.2 milliliters per/dose. […] Total cells/mouse is calculated using a coulter counter. […]

Assay [2] concerns collagen-induced arthritis in male DBA/1 mice. Nature of the assay: Collagen-induced arthritis in mice (incidence, severity, weight). Particulars: for Weight: in g (unit assumed); for % Incidence: individual inhibitors in the comparison experiment. How it is done: Arthritis is induced in 8-12 week old male DBA/1 mice by injection of 50 micrograms of chick type II collagen (CII) in complete Freunds adjuvant (Sigma) on day 0 at the base of the tail as described in J. Stuart, Annual Rev. Immunol., 2, 199 (1984). Compounds are prepared as a suspension in 0.5% methylcelluose (Sigma, St. Louis, Mo.), 0.025% Tween 20 (Sigma). The COX-2 inhibitors (Example 1 and 2) and LTB4 receptor antagonist (Example 3) are administered alone or a COX-2 inhibitor and an LTB4 receptor antagonist in combination. The compounds are administered in non-arthritic animals by gavage in a volume of 0.1 mL beginning on day 20 post collagen injection and continuing daily until final evaluation on day 55. Animals are boosted on day 21 with 50 micrograms of collagen (CII) in incomplete Freunds adjuvant. The animals are subsequently evaluated several times each week for incidence and severity of arthritis until day 56. Any animal with paw redness or swelling is counted as arthritic. Scoring of severity is carried out using a score of 0-3 for each paw (maximal score of 12/mouse) as described in P. Wooley, et al., Trans. Proc., 15, 180 (1983). The animals are measured for incidence of arthritis and severity in the animals where arthritis is observed. The incidence of arthritis is determined at a gross level by observing the swelling or redness in the paw or digits. Severity is measured with the following guidelines. Briefly, animals displaying four normal paws, i.e., no redness or swelling are scored 0. Any redness or swelling of digits or the paw is scored as 1. Gross swelling of the whole paw or deformity is scored as 2. Ankylosis of joints is scored as 3.
Eight- to twelve-week old male DBA/1 mice were injected at the base of the tail with 50 micrograms of chick type II collagen in CFA. 21 days later, animals were boosted with 50 micrograms chick type II collagen in IFA. […] On day 56 animals were evaluated for arthritis. Any animals displaying inflammation in the paw were included as positive for incidence. In addition, paw swelling was graded on a standard scale of 0-3/paw (total score of 12/animal).

The test system is the same in assay [3]. The description is as above. Particulars: Table 4 (FIG. 2); evaluated day 56; treated from day 21; compound C-1 15 mpk bid, compound L-2 150 mpk bid, alone or combined.
[4] abbreviates: Table 4 (FIG. 2), C-1 15 mpk bid, L-2 150 mpk bid, alone or combined.
[5] abbreviates: Table 4 (FIG. 2), day 56, paw swelling graded 0-3/paw, total score of 12/animal, C-1 15 mpk bid, L-2 150 mpk bid, alone or combined.
[6] abbreviates: Table 6 (FIG. 4), doses not given.
Setting [7] is: Table 6 (FIG. 4), score 0-3/paw, total 12/animal, doses not given.

With `Cc1ccc(-c2cc(C(F)(F)F)nn2-c2ccc(S(N)(=O)=O)cc2)cc1` [COX-2 Inhib., celecoxib], the “Total Cells/Mouse” value in assay [1] was found to be 40600000. The Weight in assay [2] (setting [4]) and in assay [2] (setting [6]) was 24.66 in each case. The Severity in assay [2] (setting [5]) and in assay [2] (setting [7]) was 5.1 each time. Moreover, the “% Incidence” value in assay [2] (setting [6]) and in assay [3] was 100% each time.
In the case of `O=C(O)C1(c2ccc3c(c2)OCC(Cc2ccc(-c4ccccc4)cc2)[C@H]3O)CCCC1` (stereo partly drawn) [LTB4 ra, 1-[3-([1,1′-biphenyl]-4-ylmethyl)-3,4-dihydro-4-hydroxy-2H-1-benzopyran-7-yl]-cyclopentanecarboxylic acid, (3S-trans)], the “Total Cells/Mouse” value in assay [1] came out at 38900000. The Weight in assay [2] (setting [4]) and in assay [2] (setting [6]) was 26.77 throughout. For the same compound, the Severity in assay [2] (setting [5]) and in assay [2] (setting [7]) was 2.7 each time. Further, the “% Incidence” value in assay [2] (setting [6]) and in assay [3] was 90% throughout.
